# From PMC12298351, “Novel 3,19-(N-Phenyl-3-(4-fluorophenyl)-pyrazole) Acetal of Andrographolide Promotes Cell Cycle Arrest and Apoptosis in MDA-MB-231 Breast Cancer Cells” (Pharmaceuticals, 2025)
# What was measured:
# HCT-116 = assay type: cell-based; details: HCT-116, Colon
# SK-MEL-5 = details: SK-MEL-5, Melanoma; for CC50: read-out: 50% lethal concentration (LC50)
# T-47D = details: for GI50 / Total growth inhibition (TGI): Breast; for CC50: read-out: 50% lethal concentration (LC50), Breast
# RPMI-8226 = details: RPMI-8226, Leukemia; for CC50: read-out: 50% lethal concentration (LC50)
# DU-145 = details: DU-145, Prostate; for CC50: read-out: 50% lethal concentration (LC50)
# SNB-75 = details: SNB-75, CNS; for CC50: read-out: 50% lethal concentration (LC50)
# UACC-62 = details: UACC-62, Melanoma; for CC50: read-out: 50% lethal concentration (LC50)
# OVCAR-5 = details: OVCAR-5, Ovarian; for CC50: read-out: 50% lethal concentration (LC50)
# SNB-19 = assay type: cell-based; details: SNB-19, CNS
# NCI-H522 = details: for Total growth inhibition (TGI) / CC50: NCI-H522, Non-Small Cell Lung; for GI50: NCI-H522, Non-Small-Cell Lung; for CC50: read-out: 50% lethal concentration (LC50)
# HOP-92 = details: for GI50: HOP-92, Non-Small-Cell Lung
# SK-OV-3 = details: SK-OV-3, Ovarian; for CC50: read-out: 50% lethal concentration (LC50)
# UO-31 = details: UO-31, Renal; for CC50: read-out: 50% lethal concentration (LC50)
# HCC-2998 = details: HCC-2998, Colon
# IGROV1 = details: IGROV1, Ovarian; for CC50: read-out: 50% lethal concentration (LC50)
# ACHN = details: for GI50 / Total growth inhibition (TGI): Renal; for CC50: read-out: 50% lethal concentration (LC50), Renal
# TK-10 = assay type: cell-based; details: TK-10, Renal
# K-562 = details: K-562, Leukemia; for CC50: read-out: 50% lethal concentration (LC50)
# NCI-H23 = details: for Total growth inhibition (TGI) / CC50: NCI-H23, Non-Small Cell Lung; for GI50: NCI-H23, Non-Small-Cell Lung; for CC50: read-out: 50% lethal concentration (LC50)
# HCT-15 = details: HCT-15, Colon; for CC50: read-out: 50% lethal concentration (LC50)
# HL-60(TB) = details: for GI50 / Total growth inhibition (TGI): Leukemia; for CC50: read-out: 50% lethal concentration (LC50), Leukemia
# SF-268 = details: SF-268, CNS; for CC50: read-out: 50% lethal concentration (LC50)
# BT-549 = assay type: cell-based; details: BT-549, Breast
# UACC-257 = details: UACC-257, Melanoma
# 786-0 = details: 786-0, Renal; for CC50: read-out: 50% lethal concentration (LC50)
# PC-3 = details: PC-3, Prostate; for CC50: read-out: 50% lethal concentration (LC50)
# CCRF-CEM = details: for GI50: Leukemia; for CC50: read-out: 50% lethal concentration (LC50), Leukemia
# COLO 205 = details: COLO 205, Colon
# MDA-MB-435 = details: MDA-MB-435, Melanoma; for CC50: read-out: 50% lethal concentration (LC50)
# SF-295 = details: SF-295, CNS; for CC50: read-out: 50% lethal concentration (LC50)
# OVCAR-4 = assay type: cell-based; details: OVCAR-4, Ovarian
# MOLT-4 = details: MOLT-4, Leukemia; for CC50: read-out: 50% lethal concentration (LC50)
# [1] = read-out: 50% lethal concentration (LC50)
structure (smiles),measurement,setting,value
C=C1CCC2C3(C)COC(c4cn(-c5ccccc5)nc4-c4cccc(Br)c4)OC3CCC2(C)C1CC=C1C(=O)OCC1O (stereo not shown) [1e],GI50,HCT-116,1240 nM
same,Total growth inhibition (TGI),HCT-116,2.75 µM
same,GI50,SK-MEL-5,1540 nM
same,Total growth inhibition (TGI),SK-MEL-5,2.88 µM
same,CC50,SK-MEL-5,5.39 µM
same,GI50,T-47D,2290 nM
same,Total growth inhibition (TGI),T-47D,7.26 µM
same,CC50,T-47D,> 100 µM
same,GI50,RPMI-8226,2750 nM
same,Total growth inhibition (TGI),RPMI-8226,> 100 µM
same,CC50,RPMI-8226,> 100 µM
same,GI50,DU-145,2120 nM
same,Total growth inhibition (TGI),DU-145,4.57 µM
same,CC50,DU-145,9.82 µM
same,GI50,SNB-75,1570 nM
same,Total growth inhibition (TGI),SNB-75,5.32 µM
same,CC50,SNB-75,22.9 µM
same,GI50,UACC-62,1680 nM
same,Total growth inhibition (TGI),UACC-62,3.4 µM
same,CC50,UACC-62,6.9 µM
same,GI50,OVCAR-5,1850 nM
same,Total growth inhibition (TGI),OVCAR-5,4.35 µM
same,CC50,OVCAR-5,47.7 µM
same,GI50,SNB-19,2170 nM
same,Total growth inhibition (TGI),SNB-19,5.24 µM
same,CC50,SNB-19; [1],17.2 µM
same,Total growth inhibition (TGI),NCI-H522,2.9 µM
same,GI50,NCI-H522,1500 nM
same,CC50,NCI-H522,5.62 µM
same,Total growth inhibition (TGI),"HOP-92; HOP-92, Non-Small Cell Lung",3.41 µM
same,GI50,HOP-92,1750 nM
same,GI50,SK-OV-3,4.16 µM
same,Total growth inhibition (TGI),SK-OV-3,48.3 µM
same,CC50,SK-OV-3,> 100 µM
same,GI50,UO-31,1450 nM
same,Total growth inhibition (TGI),UO-31,5.34 µM
same,CC50,UO-31,6.83 µM
same,GI50,HCC-2998,1720 nM
same,Total growth inhibition (TGI),HCC-2998,3.33 µM
same,GI50,IGROV1,2200 nM
same,Total growth inhibition (TGI),IGROV1,4.83 µM
same,CC50,IGROV1,> 100 µM
same,GI50,ACHN,1610 nM
same,Total growth inhibition (TGI),ACHN,16.8 µM
same,CC50,ACHN,5.51 µM
same,GI50,TK-10,2120 nM
same,Total growth inhibition (TGI),TK-10,3.58 µM
same,CC50,TK-10; [1],40.4 µM
same,GI50,K-562,2890 nM
same,Total growth inhibition (TGI),K-562,> 100 µM
same,CC50,K-562,> 100 µM
same,Total growth inhibition (TGI),NCI-H23,4.07 µM
same,GI50,NCI-H23,1900 nM
same,CC50,NCI-H23,8.74 µM
same,GI50,HCT-15,1600 nM
same,Total growth inhibition (TGI),HCT-15,3.55 µM
same,CC50,HCT-15,7.85 µM
same,GI50,HL-60(TB),1170 nM
same,Total growth inhibition (TGI),HL-60(TB),5.17 µM
same,CC50,HL-60(TB),> 100 µM
same,GI50,SF-268,2020 nM
same,Total growth inhibition (TGI),SF-268,4.26 µM
same,CC50,SF-268,8.98 µM
same,GI50,BT-549,1460 nM
same,Total growth inhibition (TGI),BT-549,2.99 µM
same,GI50,UACC-257,1770 nM
same,Total growth inhibition (TGI),UACC-257,3.45 µM
same,GI50,786-0,2590 nM
same,CC50,786-0,> 100 µM
same,GI50,PC-3,2290 nM
same,CC50,PC-3,> 100 µM
same,GI50,CCRF-CEM,700 nM
same,CC50,CCRF-CEM,> 100 µM
same,GI50,COLO 205,2090 nM
same,Total growth inhibition (TGI),COLO 205,4.36 µM
same,GI50,MDA-MB-435,1720 nM
same,Total growth inhibition (TGI),MDA-MB-435,3.6 µM
same,CC50,MDA-MB-435,7.51 µM
same,GI50,SF-295,1360 nM
same,Total growth inhibition (TGI),SF-295,2.68 µM
same,CC50,SF-295,5.3 µM
same,GI50,OVCAR-4,2490 nM
same,CC50,OVCAR-4; [1],> 100 µM
same,GI50,MOLT-4,910 nM
same,Total growth inhibition (TGI),MOLT-4,4.24 µM
same,CC50,MOLT-4,> 100 µM
"C=C1CCC2C3(C)COC(c4cn(-c5ccccc5)nc4-c4ccc(F)cc4)OC3CCC2(C)C1CC=C1C(=O)OCC1O (stereo not shown) [1f, 3,19-(N-Phenyl-3-(4-fluorophenyl)-pyrazole) Acetal of Andrographolide]",GI50,HCT-116,390 nM
same,Total growth inhibition (TGI),HCT-116,1.18 µM
same,GI50,SK-MEL-5,1620 nM
same,Total growth inhibition (TGI),SK-MEL-5,2.98 µM
same,CC50,SK-MEL-5,5.47 µM
same,GI50,T-47D,1190 nM
same,Total growth inhibition (TGI),T-47D,2.97 µM
same,CC50,T-47D,7.44 µM
same,GI50,RPMI-8226,490 nM
same,Total growth inhibition (TGI),RPMI-8226,> 100 µM
same,CC50,RPMI-8226,> 100 µM
same,GI50,DU-145,1820 nM
same,Total growth inhibition (TGI),DU-145,3.44 µM
same,CC50,DU-145,6.52 µM
same,GI50,SNB-75,1660 nM
same,Total growth inhibition (TGI),SNB-75,3.09 µM
same,CC50,SNB-75,5.86 µM
same,GI50,UACC-62,1580 nM
same,Total growth inhibition (TGI),UACC-62,3.09 µM
same,CC50,UACC-62,6.05 µM
same,GI50,OVCAR-5,1740 nM
same,Total growth inhibition (TGI),OVCAR-5,3.88 µM
same,CC50,OVCAR-5,8.66 µM
same,GI50,SNB-19,1440 nM
same,Total growth inhibition (TGI),SNB-19,2.91 µM
same,Total growth inhibition (TGI),NCI-H522,3.82 µM
same,GI50,NCI-H522,1950 nM
same,CC50,NCI-H522,7.48 µM
same,Total growth inhibition (TGI),"HOP-92; HOP-92, Non-Small Cell Lung",2.73 µM
same,GI50,HOP-92,1290 nM
same,CC50,"HOP-92; read-out: 50% lethal concentration (LC50), HOP-92, Non-Small Cell Lung",5.78 µM
same,GI50,SK-OV-3,1.88 µM
same,Total growth inhibition (TGI),SK-OV-3,5.48 µM
same,CC50,SK-OV-3,30.7 µM
same,GI50,UO-31,1600 nM
same,Total growth inhibition (TGI),UO-31,3.34 µM
same,CC50,UO-31,5.14 µM
same,GI50,HCC-2998,1760 nM
same,Total growth inhibition (TGI),HCC-2998,3.21 µM
same,GI50,IGROV1,1840 nM
same,Total growth inhibition (TGI),IGROV1,4.75 µM
same,CC50,IGROV1,> 100 µM
same,GI50,ACHN,1660 nM
same,Total growth inhibition (TGI),ACHN,3.11 µM
same,CC50,ACHN,5.82 µM
same,GI50,TK-10,1270 nM
same,Total growth inhibition (TGI),TK-10,2.55 µM
same,GI50,K-562,2340 nM
same,Total growth inhibition (TGI),K-562,> 100 µM
same,CC50,K-562,> 100 µM
same,Total growth inhibition (TGI),NCI-H23,3.32 µM
same,GI50,NCI-H23,1700 nM
same,CC50,NCI-H23,6.46 µM
same,GI50,HCT-15,1610 nM
same,Total growth inhibition (TGI),HCT-15,3.18 µM
same,CC50,HCT-15,6.28 µM
same,GI50,HL-60(TB),640 nM
same,Total growth inhibition (TGI),HL-60(TB),7.12 µM
same,CC50,HL-60(TB),> 100 µM
same,GI50,SF-268,2360 nM
same,Total growth inhibition (TGI),SF-268,5.63 µM
same,CC50,SF-268,25.7 µM
same,GI50,BT-549,1310 nM
same,Total growth inhibition (TGI),BT-549,3.18 µM
same,GI50,UACC-257,1650 nM
same,Total growth inhibition (TGI),UACC-257,3.18 µM
same,GI50,786-0,1600 nM
same,Total growth inhibition (TGI),786-0,3.34 µM
same,CC50,786-0,6.96 µM
same,GI50,PC-3,1550 nM
same,Total growth inhibition (TGI),PC-3,4.04 µM
same,CC50,PC-3,> 100 µM
same,GI50,CCRF-CEM,400 nM
same,CC50,CCRF-CEM,> 100 µM
same,GI50,COLO 205,1480 nM
same,Total growth inhibition (TGI),COLO 205,3.2 µM
same,GI50,MDA-MB-435,1680 nM
same,Total growth inhibition (TGI),MDA-MB-435,3.27 µM
same,CC50,MDA-MB-435,6.38 µM
same,GI50,SF-295,1550 nM
same,Total growth inhibition (TGI),SF-295,2.92 µM
same,CC50,SF-295,5.49 µM
same,GI50,OVCAR-4,1750 nM
same,Total growth inhibition (TGI),OVCAR-4,4.08 µM
same,GI50,MOLT-4,600 nM
same,CC50,MOLT-4,> 100 µM
